# Test results taken from patent publication US10221173B2, “Chemical compounds” (AstraZeneca AB, priority 2017, dated 2019).
# Assays:
# [1] = biological target: Estrogen Receptor (ERα) in MCF-7 cells (Homo sapiens (Human), UniProt P03372); assay: MCF-7 ER down-regulation assay (immuno-fluorescence); type: cell-based; conditions: for % downregulation (in brackets): maximum downregulation
# [2] = Thermodynamic solubility (shake-flask); type: physicochemical; conditions: aqueous phosphate buffer, 25 °C, pH 7.4, aqueous buffer, thermodynamic from solid, phosphate buffer pH 7.4, 24 hours
# [3] = Log D (shake flask, 1-octanol/aqueous buffer); type: physicochemical; conditions: 1-octanol/aqueous buffer, pH 7.4, pH 7.4
# [4] = biological target: recombinant human Estrogen Receptor alpha ligand binding domain (ER alpha-LBD (GST)) (Homo sapiens (Human), UniProt P03372); assay: ERα binding assay (LanthaScreen TR-FRET competition)
# recombinant human Estrogen Receptor alpha ligand binding domain (ER alpha-LBD (GST)), sequence (P03372 307-554): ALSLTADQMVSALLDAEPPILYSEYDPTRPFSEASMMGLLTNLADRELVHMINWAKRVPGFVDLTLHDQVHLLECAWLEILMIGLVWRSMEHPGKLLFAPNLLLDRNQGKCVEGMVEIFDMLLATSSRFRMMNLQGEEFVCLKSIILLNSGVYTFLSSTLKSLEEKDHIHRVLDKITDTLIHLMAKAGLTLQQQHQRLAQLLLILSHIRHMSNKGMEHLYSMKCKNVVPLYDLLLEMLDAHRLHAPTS
# Description: The ability of compounds to bind to isolated Estrogen Receptor Alpha Ligand binding domain (ER alpha—LBD (GST)) was assessed in competition assays using a LanthaScreen Time-Resolved Fluorescence Resonance Energy Transfer (TR-FRET) detection end-point. For the LanthaScreen TR-FRET endpoint, a suitable fluorophore (Fluormone ES2, ThermoFisher, Product code P2645) and recombinant human Estrogen Receptor alpha ligand binding domain, residues 307-554 (expressed and purified in-house) were used to measure compound binding. The assay principle is that ER alpha-LBD (GST) is added to a fluorescent ligand to form a receptor/fluorophore complex. A terbium-labelled anti-GST antibody (Product code PV3551) is used to indirectly label the receptor by binding to its GST tag, and competitive binding is detected by a test compound's ability to displace the fluorescent ligand, resulting in a loss of TR-FRET signal between the Tb-anti-GST antibody and the tracer. The assay was performed as follows with all reagent additions carried out using the Beckman Coulter BioRAPTR FRD microfluidic workstation: • 1. Acoustic dispense 120 nL of the test compound into a black low volume 384 well assay plates. • 2. Prepare 1× ER alpha-LBD/Tb-antiGST Ab in ES2 screening buffer and incubate for 15 minutes. • 3. […] Cover the assay plate to protect the reagents from light and evaporation, and incubate at room temperature for 4 hours. • 5. Excite at 337 nm and measure the fluorescent emission signal of each well at 490 nm and 520 nm using the BMG PheraSTAR.
# TR-FRET dose response data obtained with each compound was exported into a suitable software package (such as Origin or Genedata) to perform curve fitting analysis. Competitive ER alpha binding was expressed as an IC50 value.
# [5] = Human plasma protein binding (equilibrium dialysis); type: in vitro ADME
# Estrogen Receptor (ERα) in MCF-7 cells, sequence (P03372 whole entry): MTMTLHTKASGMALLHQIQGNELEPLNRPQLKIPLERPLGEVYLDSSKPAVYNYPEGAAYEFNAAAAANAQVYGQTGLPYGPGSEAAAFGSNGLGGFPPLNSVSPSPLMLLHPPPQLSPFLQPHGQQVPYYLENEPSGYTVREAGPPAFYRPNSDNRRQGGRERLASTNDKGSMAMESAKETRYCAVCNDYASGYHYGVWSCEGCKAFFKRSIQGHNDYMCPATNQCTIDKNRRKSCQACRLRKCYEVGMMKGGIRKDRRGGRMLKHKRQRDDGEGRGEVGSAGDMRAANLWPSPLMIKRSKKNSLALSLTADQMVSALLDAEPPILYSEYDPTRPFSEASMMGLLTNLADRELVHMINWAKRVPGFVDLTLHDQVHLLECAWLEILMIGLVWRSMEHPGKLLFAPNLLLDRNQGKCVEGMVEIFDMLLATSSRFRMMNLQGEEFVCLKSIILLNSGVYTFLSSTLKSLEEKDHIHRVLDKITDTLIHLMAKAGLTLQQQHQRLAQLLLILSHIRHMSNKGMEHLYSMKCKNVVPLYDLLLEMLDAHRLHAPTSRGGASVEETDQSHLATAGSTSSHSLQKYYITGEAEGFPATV
compound,measurement,setting,value
"C[C@@H]1Cc2c([nH]c3ccccc23)[C@@H](c2cc(OCCNCCCF)ncn2)N1CC(F)(F)F [Example 113, 3-fluoro-N-(2-((6-((1S,3R)-3-methyl-2-(2,2,2-trifluoroethyl)-2,3,4,9-tetrahydro-1H-pyrido[3,4-b]indol-1-yl)pyrimidin-4-yl)oxy)ethyl)propan-1-amine]",IC50,[1],> 300 nM
same,solubility at 24 h,[2],< 1.6 µM
same,logD,[3],4.1
same,IC50,[4],17 nM
"Cc1c(OCCNCCCF)ccc(F)c1[C@@H]1c2[nH]c3ccccc3c2CC(C)(C)N1C[C@H](C)C(=O)O [Example 134, (S)-3-((R)-1-(6-fluoro-3-(2-((3-fluoropropyl)amino)ethoxy)-2-methylphenyl)-3,3-dimethyl-1,3,4,9-tetrahydro-2H-pyrido[3,4-b]indol-2-yl)-2-methylpropanoic acid]",IC50,[1],1.6 nM
same,% downregulation (in brackets),[1],85%
same,solubility at 24 h,[2],> 1000 µM
same,logD,[3],0.6
same,Human plasma protein binding (% free),[5],36 % free
same,IC50,[4],5.8 nM
"Cc1c(NCCNCCCF)ccc(F)c1[C@@H]1c2[nH]c3ccccc3c2C[C@@H](C)N1C[C@H](C)C(=O)O [Example 135, (S)-3-((1R,3R)-1-(6-fluoro-3-((2-((3-fluoropropyl)amino)ethyl)amino)-2-methylphenyl)-3-methyl-1,3,4,9-tetrahydro-2H-pyrido[3,4-b]indol-2-yl)-2-methylpropanoic acid]",IC50,[1],16 nM
same,solubility at 24 h,[2],> 1000 µM
same,logD,[3],0.5
same,Human plasma protein binding (% free),[5],32 % free
same,IC50,[4],160 nM
"Cc1c(OCCNCCC(F)F)ccc(F)c1[C@@H]1c2[nH]c3ccc(F)cc3c2C[C@@H](C)N1C[C@@H](C)C(=O)O [Example 162, (R)-3-((1R,3R)-1-(3-(2-((3,3-difluoropropyl)amino)ethoxy)-6-fluoro-2-methylphenyl)-6-fluoro-3-methyl-1,3,4,9-tetrahydro-2H-pyrido[3,4-b]indol-2-yl)-2-methylpropanoic acid]",solubility at 24 h,[2],> 1000 µM
same,logD,[3],1.8
same,Human plasma protein binding (% free),[5],27 % free
"C[C@@H]1Cc2c([nH]c3ccccc23)[C@@H](c2c(F)ccc(OCCN(C)CCCF)c2C(F)F)N1C[C@H](C)C(=O)O [Example 148, (S)-3-((1R,3R)-1-(2-(difluoromethyl)-6-fluoro-3-(2-((3-fluoropropyl)(methyl)amino)ethoxy)phenyl)-3-methyl-1,3,4,9-tetrahydro-2H-pyrido[3,4-b]indol-2-yl)-2-methylpropanoic acid]",IC50,[1],0.42 nM
same,% downregulation (in brackets),[1],68%
same,solubility at 24 h,[2],788 µM
same,logD,[3],1.5
same,Human plasma protein binding (% free),[5],10 % free
same,IC50,[4],1.1 nM
"Cc1c(N(C)CCN(C)CCCF)ccc(F)c1[C@@H]1c2[nH]c3ccccc3c2C[C@@H](C)N1C[C@H](C)C(=O)O [Example 147, (S)-3-((1R,3R)-1-(6-fluoro-3-((2-((3-fluoropropyl)(methyl)amino)ethyl)(methyl)amino)-2-methylphenyl)-3-methyl-1,3,4,9-tetrahydro-2H-pyrido[3,4-b]indol-2-yl)-2-methylpropanoic acid]",Human plasma protein binding (% free),[5],19 % free
same,IC50,[4],51 nM
"C[C@@H]1Cc2c([nH]c3ccccc23)[C@@H](c2cncc(OCCNCCCF)c2)N1CC(F)(F)F [Example 101, 3-fluoro-N-(2-((5-((1R,3R)-3-methyl-2-(2,2,2-trifluoroethyl)-2,3,4,9-tetrahydro-1H-pyrido[3,4-b]indol-1-yl)pyridin-3-yl)oxy)ethyl)propan-1-amine]",IC50,[1],27 nM
same,solubility at 24 h,[2],329 µM
same,logD,[3],3.3
same,Human plasma protein binding (% free),[5],8.4 % free
same,IC50,[4],9.2 nM
"Cc1c(OCCNCCCF)ccc(F)c1[C@@H]1c2[nH]c3ccccc3c2C[C@@H](C)N1CC(F)(F)C(=O)O [Example 118, 2,2-difluoro-3-((1R,3R)-1-(6-fluoro-3-(2-((3-fluoropropyl)amino)ethoxy)-2-methylphenyl)-3-methyl-1,3,4,9-tetrahydro-2H-pyrido[3,4-b]indol-2-yl)propanoic acid]",IC50,[1],5.5 nM
same,solubility at 24 h,[2],111 µM
same,logD,[3],1.8
same,Human plasma protein binding (% free),[5],8.4 % free
same,IC50,[4],1.2 nM
"Cc1c(OCCNCCCF)ncnc1[C@@H]1c2[nH]c3ccccc3c2C[C@@H](C)N1CC(F)(F)CO [Example 115, 2,2-difluoro-3-((1S,3R)-1-(6-(2-((3-fluoropropyl)amino)ethoxy)-5-methylpyrimidin-4-yl)-3-methyl-1,3,4,9-tetrahydro-2H-pyrido[3,4-b]indol-2-yl)propan-1-ol]",IC50,[1],0.31 nM
same,solubility at 24 h,[2],983 µM
same,logD,[3],2.1
same,Human plasma protein binding (% free),[5],11 % free
same,IC50,[4],1 nM
"COc1ccc(OC[C@@H](C)NCCCF)cc1[C@@H]1c2[nH]c3ccccc3c2C[C@@H](C)N1CC(F)(F)CO [Example 50, 2,2-difIuoro-3-((1R,3R)-1-(5-((S)-2-((3-fluoropropyl)amino)propoxy)-2-methoxyphenyl)-3-methyl-1,3,4,9-tetrahydro-2H-pyrido[3,4-b]indol-2-yl)propan-1-ol]",IC50,[1],0.81 nM
same,% downregulation (in brackets),[1],81%
same,solubility at 24 h,[2],461 µM
same,logD,[3],2.8
same,Human plasma protein binding (% free),[5],7.1 % free
same,IC50,[4],1 nM
"C[C@@H]1Cc2c([nH]c3ccccc23)[C@@H](c2cccc(OCCNCCCF)c2C#N)N1CC(F)(F)F [Example 69, 2-(2-((3-fluoropropyl)amino)ethoxy)-6-((1R,3R)-3-methyl-2-(2,2,2-trifluoroethyl)-2,3,4,9-tetrahydro-1H-pyrido[3,4-b]indol-1-yl)benzonitrile]",IC50,[1],1.5 nM
same,solubility at 24 h,[2],150 µM
same,logD,[3],3.6
same,Human plasma protein binding (% free),[5],2.2 % free
same,IC50,[4],1.4 nM
"COc1ccc(OCCNCCCF)nc1[C@@H]1c2[nH]c3ccccc3c2C[C@@H](C)N1CC(F)(F)F [Example 56, 3-fluoro-N-(2-((5-methoxy-6-((1S,3R)-3-methyl-2-(2,2,2-trifluoroethyl)-2,3,4,9-tetrahydro-1H-pyrido[3,4-b]indol-1-yl)pyridin-2-yl)oxy)ethyl)propan-1-amine]",IC50,[1],14 nM
same,solubility at 24 h,[2],445 µM
same,logD,[3],2.7
same,Human plasma protein binding (% free),[5],4.6 % free
same,IC50,[4],39 nM
"C[C@@H]1Cc2c([nH]c3ccccc23)[C@@H](c2c(Cl)ccc(OCCNCCCF)c2F)N1CC(F)(F)F [Example 78, N-(2-(4-chloro-2-fluoro-3-((1R,3R)-3-methyl-2-(2,2,2-trifluoroethyl)-2,3,4,9-tetrahydro-1H-pyrido[3,4-b]indol-1-yl)phenoxy)ethyl)-3-fluoropropan-1-amine]",IC50,[1],0.12 nM
same,solubility at 24 h,[2],26 µM
same,logD,[3],4
same,Human plasma protein binding (% free),[5],0.21 % free
same,IC50,[4],1.3 nM
"Cc1c(OCCNCCCF)cncc1[C@@H]1c2[nH]c3ccccc3c2C[C@@H](C)N1CC(F)(F)F [Example 38, 3-fluoro-N-(2-((4-methyl-5-((1R,3R)-3-methyl-2-(2,2,2-trifluoroethyl)-2,3,4,9-tetrahydro-1H-pyrido[3,4-b]indol-1-yl)pyridin-3-yl)oxy)ethyl)propan-1-amine]",IC50,[1],0.19 nM
same,Human plasma protein binding (% free),[5],0.91 % free
"C[C@@H]1Cc2c([nH]c3ccc(F)cc23)[C@@H](c2c(F)cnc(OCCNCCCF)c2F)N1CC1(F)CC1 [Example 109, N-(2-((3,5-difluoro-4-((1R,3R)-6-fluoro-2-((1-fluorocyclopropyl)methyl)-3-methyl-2,3,4,9-tetrahydro-1H-pyrido[3,4-b]indol-1-yl)pyridin-2-yl)oxy)ethyl)-3-fluoropropan-1-amine]",IC50,[1],0.41 nM
same,solubility at 24 h,[2],176 µM
same,logD,[3],> 3.6
same,Human plasma protein binding (% free),[5],1.9 % free
same,IC50,[4],1.2 nM
"C[C@@H]1Cc2c([nH]c3ccccc23)[C@@H](c2c(F)ccc(OCCNCCCF)c2Cl)N1CC(C)(C)C(=O)O [Example 131, 3-((1R,3R)-1-(2-chloro-6-fluoro-3-(2-((3-fluoropropyl)amino)ethoxy)phenyl)-3-methyl-1,3,4,9-tetrahydro-2H-pyrido[3,4-b]indol-2-yl)-2,2-dimethylpropanoic acid]",solubility at 24 h,[2],> 1000 µM
same,logD,[3],1.2
same,Human plasma protein binding (% free),[5],32 % free
"COc1ccc(OC[C@H](C)NCCCF)cc1[C@@H]1c2[nH]c3ccccc3c2C[C@@H](C)N1CC(F)(F)CO [Example 49, 2,2-difluoro-3-((1R,3R)-1-(5-((S)-2-((3-fluoropropyl)amino)propoxy)-2-methoxyphenyl)-3-methyl-1,3,4,9-tetrahydro-2H-pyrido[3,4-b]indol-2-yl)propan-1-ol]",IC50,[1],0.15 nM
same,solubility at 24 h,[2],335 µM
same,logD,[3],2.8
same,IC50,[4],1.2 nM
"C[C@@H]1Cc2c([nH]c3ccccc23)[C@@H](c2ccc(F)c(OCCNCCCF)c2)N1CC(F)(F)F [Example 74, 3-fluoro-N-(2-(2-fluoro-5-((1R,3R)-3-methyl-2-(2,2,2-trifluoroethyl)-2,3,4,9-tetrahydro-1H-pyrido[3,4-b]indol-1-yl)phenoxy)ethyl)propan-1-amine]",solubility at 24 h,[2],0.9 µM
"COc1c(OCCNCCCF)cccc1[C@@H]1c2[nH]c3ccccc3c2C[C@@H](C)N1CC1(F)COC1 [Example 5, 3-fluoro-N-(2-(3-((1R,3R)-2-((3-fluorooxetan-3-yl)methyl)-3-methyl-2,3,4,9-tetrahydro-1H-pyrido[3,4-b]indol-1-yl)-2-methoxyphenoxy)ethyl)propan-1-amine]",IC50,[1],25 nM
same,solubility at 24 h,[2],357 µM
same,IC50,[4],45 nM
"Cc1ccc(OCCNCCCF)cc1[C@@H]1c2[nH]c3ccccc3c2C[C@@H](C)N1CC(F)(F)F [Example 17, 3-fluoro-N-(2-(4-methyl-3-((1R,3R)-3-methyl-2-(2,2,2-trifluoroethyl)-2,3,4,9-tetrahydro-1H-pyrido[3,4-b]indol-1-yl)phenoxy)ethyl)propan-1-amine]",solubility at 24 h,[2],68 µM
